This assay deals with APF activity on primary normal bladder epithelial cells. The experiment in a line: Blocking of APF antiproliferative activity by recombinant growth factors (^3H-thymidine incorporation). It is filed as cell-based, human. The conditions noted are these: co-incubation with low molecular weight IC urine fractions; HB-EGF 10, 30 and 100 ng/ml; EGF, IGF1 up to about 12 and 25 fold normal levels. As to the method:
^3H-Thymidine Incorporation. Primary normal adult human bladder epithelial cells (HBE) were grown from biopsies obtained at autopsy from patients who had no history of bladder disorder. HBE cells were plated at a density of 1×10^4 cells/well onto 96 well tissue culture plates and incubated at 37° C. overnight (resulting in approximately 60% confluence the following day). The medium was then changed to MEM containing only 1% glutamine and 1% antibiotic/ antimycotic solution, and the cells were incubated at 37° C. overnight. […] Cells were then trypsinized, and insoluble cell contents harvested and methanol-fixed onto glass fiber filter paper, as previously described^62; the amount of radioactivity incorporated was determined as counts per minute using a Beckman LS 3801 scintillation counter. […]
To determine whether the antiproliferative effect of the APF on bladder epithelial cells might be due to a decrease in HB-EGF production, primary normal bladder epithelial cells were simultaneously incubated with varying levels of recombinant HB-EGF, EGF, or IGF1 and low molecular weight urine fractions from IC patients. […] This effect was evident using a concentration of HB-EGF (10 ng/ml) in the range previously determined for normal controls (2-22 ng/ml, mean 6.33 ng/ml) 12 as well as higher concentrations (30 and 100 ng/ml). […]

Turning to epidermal growth factor [EGF], the “inhibition of IC urine antiproliferative activity by recombinant growth factor” value is listed as “insufficient to completely inhibit APF activity”.

Turning to insulin-like growth factor 1 [IGF1], the “inhibition of IC urine antiproliferative activity by recombinant growth factor” value was “insufficient to completely inhibit APF activity”.

The values are drawn from US20020016443A1, “Antiproliferative factor” (priority 1996, published 2002).
